Measured values taken from paper PMC8151143.

Molecular target: T1, rPtCLec2 (PtCLec2) (Portunus trituberculatus, UniProt A0A7S5QMV0)
T1 construct: gene CLec2; mature peptide (signal peptide residues 1-19 removed) in pET-32a, N-terminal Trx and His tags kept, about 50 kDa; single CRD with QPD motif
T1 sequence (A0A7S5QMV0 20-267): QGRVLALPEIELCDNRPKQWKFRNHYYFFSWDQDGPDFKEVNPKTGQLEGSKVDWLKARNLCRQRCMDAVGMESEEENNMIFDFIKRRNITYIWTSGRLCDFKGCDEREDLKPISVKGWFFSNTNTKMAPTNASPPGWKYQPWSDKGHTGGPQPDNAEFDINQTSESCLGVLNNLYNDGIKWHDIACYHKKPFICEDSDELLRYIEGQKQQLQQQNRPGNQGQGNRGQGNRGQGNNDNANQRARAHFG
Assay: inhibition of agglutination of FITC-labelled Pseudomonas aeruginosa, fluorescence microscopy
Assay type: binding
Conditions: 10 mM CaCl2; 25-200 mM sugar tested; rPtCLec2 100 ug/mL; 30 min preincubation; indirect (competition) read-out

| Compound | minimum concentration of carbohydrate that could completely inhibit bacterial agglutinating activity |
| --- | --- |
| OC[C@H]1OC(O)[C@H](O)[C@@H](O)[C@H]1O (stereo partly drawn) [D-galactose] | inhibited with the increasing concentration of LPS, D-galactose, and D-mannose |
| OC[C@H]1OC(O)[C@@H](O)[C@@H](O)[C@@H]1O (stereo partly drawn) [D-mannose] | inhibited with the increasing concentration of LPS, D-galactose, and D-mannose |
